Results on 19 molecules are retold here after patent publication US12643892B2, “Pyridazinone compounds for the treatment of neuromuscular diseases” (Edgewise Therapeutics, Inc., priority 2020, dated 2026).

For one assay, the target named is Skeletal Myofibril ATPase (Rabbit Psoas myofibrils). In words: Skeletal Myofibril ATPase Assay. Format: biochemical. The settings on record: PK/LDH-coupled NADH absorbance at 340 nm. Put shortly: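 Rabbit psoas myofibril ATPase read through a PK-LDH coupled system, as NADH loss at 340 nm every 1.5-2 min for 1 h, in PIPES/CaCl2/EGTA pCa buffer at pH 7.0. Absorbance change normalized to 1% DMSO vehicle (100%) and no change (0%). IC50 from a four-parameter logistic fit with bottom constrained ≥0.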
In the case of `COc1ccc(Cn2cc(-c3nc(-c4cccc(C)c4)no3)ccc2=O)cn1` [Compound 88, 1-((6-methoxypyridin-3-yl)methyl)-5-(3-(m-tolyl)-1,2,4-oxadiazol-5-yl)pyridin-2(1H)-one], the IC50 was no more than 10 µM.
The molecule `O=C(Cn1nc(-c2nnc(-c3cncc(Cl)c3)s2)ccc1=O)NC1CCC1` [Compound 20, 2-(3-(5-(5-chloropyridin-3-yl)-1,3,4-thiadiazol-2-yl)-6-oxopyridazin-1(6H)-yl)-N-cyclobutylacetamide] registered an IC50 of no more than 10 µM.
The same measure, in the same setting: then `Cc1cccc(-c2noc(-c3ccc(=O)n(Cc4cccnc4C)c3)n2)c1` [Compound 118, 1-((2-methylpyridin-3-yl)methyl)-5-(3-(m-tolyl)-1,2,4-oxadiazol-5-yl)pyridin-2(1H)-one], with greater than 120 µM; and `CCNC(=O)Cn1nc(-c2nc(-c3cccc(OC(F)F)c3)no2)ccc1=O` [Compound 7, 2-(3-(3-(3-(difluoromethoxy)phenyl)-1,2,4-oxadiazol-5-yl)-6-oxopyridazin-1(6H)-yl)-N-ethylacetamide], with no more than 10 µM.
Still for that read-out and setting: then `O=c1ccc(-c2nc(-c3ccccc3F)no2)cn1Cc1cccnc1` [Compound 111, 5-(3-(2-fluorophenyl)-1,2,4-oxadiazol-5-yl)-1-(pyridin-3-ylmethyl)pyridin-2(1H)-one], with greater than 120 µM; and `Cc1cncc(Cn2cc(-c3nc(-c4cccc(C)c4)no3)ccc2=O)c1` [Compound 95, 1-((5-methylpyridin-3-yl)methyl)-5-(3-(m-tolyl)-1,2,4-oxadiazol-5-yl)pyridin-2(1H)-one], with no more than 10 µM; and `Cc1noc(-c2ccc(=O)n(Cc3cccc(F)c3)n2)n1` [Compound 72, 2-(3-fluorobenzyl)-6-(3-methyl-1,2,4-oxadiazol-5-yl)pyridazin-3(2H)-one], with 10 to 100 µM.
In turn, `Cc1ccc(-c2ccc(=O)n(CC(=O)NCc3ccccc3F)n2)s1` [Compound 34, N-(2-fluorobenzyl)-2-(3-(5-methylthiophen-2-yl)-6-oxopyridazin-1(6H)-yl)acetamide] yielded a concentration for half-maximal inhibition (IC50) of no more than 10 µM.
Same read-out and setting: then `CCNC(=O)Cn1nc(-c2nc(-c3cc(Cl)ccc3F)no2)ccc1=O` [Compound 1, 2-(3-(3-(5-chloro-2-fluorophenyl)-1,2,4-oxadiazol-5-yl)-6-oxopyridazin-1(6H)-yl)-N-ethylacetamide], with no more than 10 µM; and `O=c1ccc(-c2nc(-c3cccc(Cl)c3)no2)cn1Cc1cncc(F)c1` [Compound 86, 5-(3-(3-chlorophenyl)-1,2,4-oxadiazol-5-yl)-1-((5-fluoropyridin-3-yl)methyl)pyridin-2(1H)-one], with no more than 10 µM; and `CCCn1nc(-c2nc(COc3ccccc3)no2)ccc1=O` [Compound 77, 6-(3-(phenoxymethyl)-1,2,4-oxadiazol-5-yl)-2-propylpyridazin-3(2H)-one], with 10 to 100 µM.
Still for that read-out and setting: under `COc1ccc(NC(=O)Cn2nc(-c3ccco3)ccc2=O)c(OC)c1` [Compound 52, N-(2,4-dimethoxyphenyl)-2-(3-(furan-2-yl)-6-oxopyridazin-1(6H)-yl)acetamide] stands 10 to 100 µM; under `CCNC(=O)Cn1nc(-c2nc(-c3cccc(F)c3)no2)ccc1=O` [Compound 2, N-ethyl-2-(3-(3-(3-fluorophenyl)-1,2,4-oxadiazol-5-yl)-6-oxopyridazin-1(6H)-yl)acetamide], no more than 10 µM; under `O=c1ccc(-c2nc(-c3cncc(Cl)c3)no2)cn1Cc1cccnc1` [Compound 99, 5-(3-(5-chloropyridin-3-yl)-1,2,4-oxadiazol-5-yl)-1-(pyridin-3-ylmethyl)pyridin-2(1H)-one], no more than 10 µM.
On to `CCNC(=O)Cn1nc(-c2nc(-c3cccc(OC)c3)no2)ccc1=O` [Compound 4, N-ethyl-2-(3-(3-(3-methoxyphenyl)-1,2,4-oxadiazol-5-yl)-6-oxopyridazin-1(6H)-yl)acetamide], for which the concentration for half-maximal inhibition (IC50) is no more than 10 µM.
Same read-out and setting: then `O=c1ccc(-n2cncn2)nn1Cc1csc(Br)c1` [Compound 80, 2-((5-bromothiophen-3-yl)methyl)-6-(1H-1,2,4-triazol-1-yl)pyridazin-3(2H)-one], with 10 to 100 µM; and `O=c1ccc(-c2nc(C3CC3)no2)cn1Cc1c(F)cccc1Cl` [Compound 123, 1-(2-chloro-6-fluorobenzyl)-5-(3-cyclopropyl-1,2,4-oxadiazol-5-yl)pyridin-2(1H)-one], with greater than 120 µM.
Still for that read-out and setting: then `O=C(Cn1nc(-c2nnc(-c3cc(Cl)ccc3Cl)s2)ccc1=O)NC1CCC1` [Compound 18, N-cyclobutyl-2-(3-(5-(2,5-dichlorophenyl)-1,3,4-thiadiazol-2-yl)-6-oxopyridazin-1(6H)-yl)acetamide], with no more than 10 µM.

The subject of a further assay is embryos from zebrafish model of DMD.
Experiment: not given
The settings on record: FIG. 2, Li and Amer, PLoSONE, 2015; cited from earlier work.
As to `Cc1ccc(S(=O)(=O)NCc2ccccc2)cc1` [BTS, N-benzyl-p-tolyl-sulfonamide], the “protection of muscles from pathological muscle derangement” value is “protect muscles from pathological muscle derangement”.
